In patent US20060069132A1, “Azolecarboxamide herbicides” (priority 2004, published 2006):

Columns and labels:
barnyardgrass [1] = test: Test B pre-/postemergence herbicide test; type: in vivo, Echinochloa crus-galli; settings: for Barnyardgrass plant response rating: postemergence
Summary of the method: (§1)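 Pre: seeds sown, then sprayed. Post: 1–4-leaf plants (2–18 cm) sprayed at the same time. Paddy: flooded, treated at 2-leaf stage. Formulation: non-phytotoxic solvent with surfactant. Greenhouse 13–15 days; visual 0–100 score relative to controls.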

velvetleaf [2] = test: Test B pre-/postemergence herbicide test; type: in vivo, Abutilon theophrasti; settings: for Velvetleaf plant response rating: postemergence
Summary of the method: (§2)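 Seeds were planted and treated preemergence with compounds formulated in a non-phytotoxic solvent mixture containing surfactant, while plants at the 1- to 4-leaf stage (2 to 18 cm) received postemergence sprays. Flooded paddy plants were grown to the 2-leaf stage. After 13 to 15 days in a greenhouse, injury was visually rated 0–100 against untreated controls.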

barnyardgrass [3] = test: Test B flooded paddy test; type: in vivo, Echinochloa crus-galli; settings: 1000 g ai/ha, scale 0 to 100 (0 no effect, 100 complete control)
Summary of the method: (§3)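 Read-out: visual comparison with controls, scored 0 to 100, where 100 means complete control and 0 no effect. Formulated chemicals were applied postemergence to plants 2–18 cm tall (1- to 4-leaf), or to flooded-paddy plants at the 2-leaf stage, then held 13 to 15 days under glass.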

[4] = system: small flower umbrella sedge; test: Test B flooded paddy test; type: in vivo, Cyperus difformis; settings: 1000 g ai/ha, scale 0 to 100 (0 no effect, 100 complete control)
Summary of the method: as §3

ducksalad = test: Test B flooded paddy test; type: in vivo, Heteranthera limosa; settings: 1000 g ai/ha, scale 0 to 100 (0 no effect, 100 complete control)
Summary of the method: as §3

large crabgrass [5] = test: Test B pre-/postemergence herbicide test; type: in vivo, Digitaria sanguinalis; settings: for Crabgrass, Large plant response rating: postemergence
Summary of the method: as §2

redroot pigweed = test: Test A pre-/postemergence herbicide test; type: in vivo, Amaranthus retroflexus
Summary of the method: (§4)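 Sandy loam soil given preemergence directed spray; plants at 2 to 10 cm, one- to two-leaf stage, sprayed to runoff postemergence, compounds in non-phytotoxic solvent with surfactant. Injury rated visually versus untreated controls after about ten greenhouse days, 0 (no effect) to 100 (complete control); dash means not tested.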

cocklebur = test: Test B pre-/postemergence herbicide test; type: in vivo, Xanthium strumarium; settings: for Cocklebur plant response rating: postemergence
Summary of the method: as §1

wild oat = test: Test B postemergence herbicide test; type: in vivo, Avena fatua; settings: postemergence
Summary of the method: (§5)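 Greenhouse test; postemergence application to plants at 1–4 leaves (2–18 cm); paddy species at 2 leaves; evaluated visually vs controls at 13–15 days; scale 0–100 (100 = complete control).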

giant foxtail [6] = test: Test B pre-/postemergence herbicide test; type: in vivo, Setaria faberi; settings: for Foxtail, Giant plant response rating: postemergence
Summary of the method: as §2

velvetleaf [7] = test: Test A pre-/postemergence herbicide test; type: in vivo, Abutilon theophrasti
Summary of the method: as §4

rice = test: Test B flooded paddy test; type: in vivo, Oryza sativa; settings: 1000 g ai/ha, scale 0 to 100 (0 no effect, 100 complete control)
Summary of the method: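 Visual ratings, 0 (no effect) to 100 (complete control), made versus controls after 13–15 d greenhouse. Paddy plants treated at 2-leaf stage; postemergence plants at 1- to 4-leaf stage, 2–18 cm tall.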

barnyardgrass [8] = test: Test A pre-/postemergence herbicide test; type: in vivo, Echinochloa crus-galli
Summary of the method: as §4

corn = test: Test B pre-/postemergence herbicide test; type: in vivo, Zea mays; settings: for Corn plant response rating: postemergence
Summary of the method: as §2

morningglory [9] = test: Test B pre-/postemergence herbicide test; type: in vivo, Ipomoea coccinea; settings: for Morningglory plant response rating: postemergence
Summary of the method: as §1

pigweed = test: Test B pre-/postemergence herbicide test; type: in vivo, Amaranthus retroflexus; settings: for Pigweed plant response rating: postemergence
Summary of the method: as §2

large crabgrass [10] = test: Test A pre-/postemergence herbicide test; type: in vivo, Digitaria sanguinalis
Summary of the method: as §4

giant foxtail [11] = test: Test A pre-/postemergence herbicide test; type: in vivo, Setaria faberi
Summary of the method: as §4

Surinam grass = test: Test B pre-/postemergence herbicide test; type: in vivo, Urochloa decumbens; settings: for Surinam Grass plant response rating: postemergence
Summary of the method: as §2

morningglory [12] = test: Test A pre-/postemergence herbicide test; type: in vivo, Ipomoea spp.
Summary of the method: as §4

blackgrass = test: Test B postemergence herbicide test; type: in vivo, Alopecurus myosuroides; settings: postemergence
Summary of the method: as §3

lambsquarters = test: Test B pre-/postemergence herbicide test; type: in vivo, Chenopodium album; settings: for Lambsquarters plant response rating: postemergence
Summary of the method: as §2

wheat = test: Test B postemergence herbicide test; type: in vivo, Triticum aestivum; set-up: key to Wheat plant response rating: 0 = no effect, 100 = complete control; settings: postemergence
Summary of the method: as §5

[13] = 125 g ai/ha, 0 is no effect, 100 is complete control, preemergence
[14] = 125 g ai/ha, visual rating, scale 0 (no effect) to 100 (complete control)
[15] = 500 g ai/ha, visual rating, 0 = no effect, 100 = complete control, preemergence
[16] = 500 g ai/ha, scale 0 to 100, 0 is no effect, 100 is complete control
[17] = Postemergence, 500 g ai/ha, 0 to 100 scale, 0 no effect, 100 complete control
[18] = Postemergence, 2000 g ai/ha, 0 to 100 scale, 0 no effect, 100 complete control
[19] = Preemergence, 2000 g ai/ha, visual rating, 0 to 100 scale (0 no effect, 100 complete control)
[20] = preemergence, 500 g ai/ha, visual injury, 0 to 100 scale (0 no effect, 100 complete control)

CCn1nc(C(C)(C)C)cc1C(=O)Nc1cc(OC)ccc1F [Compound 347]
10: Morningglory plant response rating (morningglory [9]; [16]) | Pigweed plant response rating (pigweed; [16]) | Lambsquarters plant response rating (lambsquarters; [14]) | Lambsquarters plant response rating (lambsquarters; [16])
20: Oat, Wild plant response rating (wild oat; [16])
0: Plant response rating (0 to 100 scale), Barnyardgrass (barnyardgrass [1]; [13]) | Barnyardgrass plant response rating (barnyardgrass [1]; [14]) | Plant response rating, Barnyardgrass (barnyardgrass [1]; [15]) | Barnyardgrass plant response rating (barnyardgrass [1]; [16]) | Plant response rating (0 to 100 scale), Velvetleaf (velvetleaf [2]; [13]) | Velvetleaf plant response rating (velvetleaf [2]; [14]) | Velvetleaf plant response rating (velvetleaf [2]; [16]) | Barnyardgrass plant response rating (barnyardgrass [3]) | Sedge, Umbrella plant response rating [4] | Ducksalad plant response rating (ducksalad) | Plant response rating (0 to 100 scale), Crabgrass, Large (large crabgrass [5]; [13]) | Crabgrass, Large plant response rating (large crabgrass [5]; [14]) | Plant response rating, Crabgrass, Large (large crabgrass [5]; [15]) | Crabgrass, Large plant response rating (large crabgrass [5]; [16]) | Pigweed plant response rating (redroot pigweed; [17]) | Plant response rating, Pigweed (redroot pigweed; [18]) | Pigweed plant response rating (redroot pigweed; [19]) | Pigweed plant response rating (redroot pigweed; [20]) | Plant response rating (0 to 100 scale), Cocklebur (cocklebur; [13]) | Cocklebur plant response rating (cocklebur; [14]) | Plant response rating, Cocklebur (cocklebur; [15]) | Cocklebur plant response rating (cocklebur; [16]) | Oat, Wild plant response rating (wild oat; [14]) | Plant response rating (0 to 100 scale), Foxtail, Giant (giant foxtail [6]; [13]) | Foxtail, Giant plant response rating (giant foxtail [6]; [14]) | Plant response rating, Foxtail, Giant (giant foxtail [6]; [15]) | Foxtail, Giant plant response rating (giant foxtail [6]; [16]) | Velvetleaf plant response rating (velvetleaf [7]; [17]) | Plant response rating, Velvetleaf (velvetleaf [7]; [18]) | Velvetleaf plant response rating (velvetleaf [7]; [19]) | Velvetleaf plant response rating (velvetleaf [7]; [20]) | Rice plant response rating (rice) | Barnyardgrass plant response rating (barnyardgrass [8]; [17]) | Plant response rating, Barnyardgrass (barnyardgrass [8]; [18]) | Barnyardgrass plant response rating (barnyardgrass [8]; [19]) | Barnyardgrass plant response rating (barnyardgrass [8]; [20]) | Plant response rating (0 to 100 scale), Corn (corn; [13]) | Corn plant response rating (corn; [14]) | Plant response rating, Corn (corn; [15]) | Corn plant response rating (corn; [16]) | Plant response rating (0 to 100 scale), Morningglory (morningglory [9]; [13]) | Morningglory plant response rating (morningglory [9]; [14]) | Plant response rating, Morningglory (morningglory [9]; [15]) | Plant response rating (0 to 100 scale), Pigweed (pigweed; [13]) | Pigweed plant response rating (pigweed; [14]) | Plant response rating, Pigweed (pigweed; [15]) | Crabgrass, Large plant response rating (large crabgrass [10]; [17]) | Plant response rating, Crabgrass, Large (large crabgrass [10]; [18]) | Crabgrass, Large plant response rating (large crabgrass [10]; [19]) | Crabgrass, Large plant response rating (large crabgrass [10]; [20]) | Foxtail, Giant plant response rating (giant foxtail [11]; [17]) | Plant response rating, Foxtail, Giant (giant foxtail [11]; [18]) | Foxtail, Giant plant response rating (giant foxtail [11]; [19]) | Foxtail, Giant plant response rating (giant foxtail [11]; [20]) | Plant response rating (0 to 100 scale), Surinam Grass (Surinam grass; [13]) | Surinam Grass plant response rating (Surinam grass; [14]) | Plant response rating, Surinam Grass (Surinam grass; [15]) | Surinam Grass plant response rating (Surinam grass; [16]) | Morningglory plant response rating (morningglory [12]; [17]) | Plant response rating, Morningglory (morningglory [12]; [18]) | Morningglory plant response rating (morningglory [12]; [19]) | Morningglory plant response rating (morningglory [12]; [20]) | Plant response rating (0 to 100 scale), Lambsquarters (lambsquarters; [13]) | Plant response rating, Lambsquarters (lambsquarters; [15]) | Wheat plant response rating (wheat; [14]) | Wheat plant response rating (wheat; [16])
30: Blackgrass plant response rating (blackgrass; [14]) | Blackgrass plant response rating (blackgrass; [16])
